According to PubChem BioAssay (NCI):
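How tested: cells in 96-well plates exposed to compound for 48 hours at five concentrations. At the GI50, growth is halved. TGI: total growth inhibition.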

Key:
Assay in all cases: DTP human tumour cell line panel, 48 h
PC-3 prostate = system: PC-3 prostate
SF-268 CNS = system: SF-268 CNS
SK-MEL-2 melanoma = system: SK-MEL-2 melanoma
HOP-92 NSCLC = system: HOP-92 NSCLC
ACHN renal = system: ACHN renal
RPMI-8226 leukemia = system: RPMI-8226 leukemia
UO-31 renal = system: UO-31 renal
HT29 colon = system: HT29 colon
MCF7 breast = system: MCF7 breast
LOX IMVI melanoma = system: LOX IMVI melanoma
SK-MEL-28 melanoma = system: SK-MEL-28 melanoma
CCRF-CEM leukemia = system: CCRF-CEM leukemia
EKVX NSCLC = system: EKVX NSCLC
MDA-MB-231 breast = system: MDA-MB-231 breast
K-562 leukemia = system: K-562 leukemia
HS 578T breast = system: HS 578T breast
T-47D breast = system: T-47D breast
SW-620 colon = system: SW-620 colon
MDA-MB-435 = system: MDA-MB-435
SK-OV-3 ovarian = system: SK-OV-3 ovarian
SF-295 CNS = system: SF-295 CNS
SF-539 CNS = system: SF-539 CNS
OVCAR-4 ovarian = system: OVCAR-4 ovarian
BT-549 breast = system: BT-549 breast
MALME-3M melanoma = system: MALME-3M melanoma
SNB-19 CNS = system: SNB-19 CNS
NCI-H460 lung = system: NCI-H460 lung
SR leukemia = system: SR leukemia
UACC-62 melanoma = system: UACC-62 melanoma
NCI-H23 lung = system: NCI-H23 lung
OVCAR-5 ovarian = system: OVCAR-5 ovarian
HCT-15 colon = system: HCT-15 colon
NCI-H522 lung = system: NCI-H522 lung
HCT-116 colon = system: HCT-116 colon
MOLT-4 leukemia = system: MOLT-4 leukemia
RXF 393 renal = system: RXF 393 renal
OVCAR-3 ovarian = system: OVCAR-3 ovarian
HOP-62 NSCLC = system: HOP-62 NSCLC
HL-60(TB) leukemia = system: HL-60(TB) leukemia
NCI-H226 lung = system: NCI-H226 lung
HCC-2998 colon = system: HCC-2998 colon
SK-MEL-5 melanoma = system: SK-MEL-5 melanoma
MDA-MB-468 breast = system: MDA-MB-468 breast
SN12C renal = system: SN12C renal
KM12 colon = system: KM12 colon
IGROV1 ovarian = system: IGROV1 ovarian
SNB-75 CNS = system: SNB-75 CNS
TK-10 renal = system: TK-10 renal
M14 melanoma = system: M14 melanoma
OVCAR-8 ovarian = system: OVCAR-8 ovarian
CAKI-1 renal = system: CAKI-1 renal
U251 CNS = system: U251 CNS
COLO 205 colon = system: COLO 205 colon
UACC-257 melanoma = system: UACC-257 melanoma
DU-145 prostate = system: DU-145 prostate
786-0 renal = system: 786-0 renal
A498 renal = system: A498 renal
A549 NSCLC = system: A549 NSCLC

`CC(=O)Nc1cccc(Nc2nc(NCc3ccccc3)c3ccccc3n2)c1` was tested. Which GI50 (PC-3 prostate) did it give?
The GI50 was 2.32 µM.

What about the TGI (PC-3 prostate) of the same compound?
Its TGI is 8.15 µM.

And the GI50 (SF-268 CNS)?
The GI50 was over 10 µM.

What about the TGI (SF-268 CNS) of the same compound?
The TGI was over 10 µM.

And the GI50 (SK-MEL-2 melanoma)?
The GI50 was 3.41 µM.

And the TGI (SK-MEL-2 melanoma)?
The TGI was over 10 µM.

And the GI50 (HOP-92 NSCLC)?
Its GI50 is 1.52 µM.

What about the TGI (HOP-92 NSCLC) of the same compound?
Its TGI is 7.85 µM.

What about the GI50 (ACHN renal) of the same compound?
Its GI50 is 1.77 µM.

And the TGI (ACHN renal)?
The TGI was 3.66 µM.

And the GI50 (RPMI-8226 leukemia)?
The GI50 was 3.24 µM.

And the TGI (RPMI-8226 leukemia)?
Its TGI is over 10 µM.

What about the GI50 (UO-31 renal) of the same compound?
The GI50 was 1.73 µM.

And the TGI (UO-31 renal)?
Its TGI is 5.41 µM.

And the GI50 (HT29 colon)?
The GI50 was 1.84 µM.

What about the TGI (HT29 colon) of the same compound?
Its TGI is 3.82 µM.

And the GI50 (MCF7 breast)?
Its GI50 is 1.61 µM.

What about the TGI (MCF7 breast) of the same compound?
The TGI was 3.06 µM.

What about the GI50 (LOX IMVI melanoma) of the same compound?
The GI50 was 1.6 µM.

What about the TGI (LOX IMVI melanoma) of the same compound?
Its TGI is 2.98 µM.

And the GI50 (SK-MEL-28 melanoma)?
Its GI50 is 1.61 µM.

And the TGI (SK-MEL-28 melanoma)?
Its TGI is 3.02 µM.

And the GI50 (CCRF-CEM leukemia)?
Its GI50 is 2.81 µM.

And the TGI (CCRF-CEM leukemia)?
Its TGI is 7.87 µM.

What about the GI50 (EKVX NSCLC) of the same compound?
Its GI50 is 4.01 µM.

What about the TGI (EKVX NSCLC) of the same compound?
The TGI was over 10 µM.

What about the GI50 (MDA-MB-231 breast) of the same compound?
Its GI50 is 1.69 µM.

And the TGI (MDA-MB-231 breast)?
Its TGI is 3.24 µM.

And the GI50 (K-562 leukemia)?
Its GI50 is 3.25 µM.

And the TGI (K-562 leukemia)?
The TGI was over 10 µM.

And the GI50 (HS 578T breast)?
The GI50 was 2.16 µM.

What about the TGI (HS 578T breast) of the same compound?
Its TGI is 5.96 µM.

And the GI50 (T-47D breast)?
Its GI50 is 1.65 µM.

And the TGI (T-47D breast)?
Its TGI is 3.81 µM.

What about the GI50 (SW-620 colon) of the same compound?
Its GI50 is 1.83 µM.

And the TGI (SW-620 colon)?
The TGI was 3.37 µM.

And the GI50 (MDA-MB-435)?
Its GI50 is 1.7 µM.

And the TGI (MDA-MB-435)?
The TGI was 3.26 µM.

And the GI50 (SK-OV-3 ovarian)?
The GI50 was over 10 µM.

And the TGI (SK-OV-3 ovarian)?
Its TGI is over 10 µM.

What about the GI50 (SF-295 CNS) of the same compound?
The GI50 was 1.66 µM.

What about the TGI (SF-295 CNS) of the same compound?
Its TGI is 3.05 µM.

And the GI50 (SF-539 CNS)?
Its GI50 is 1.74 µM.

What about the TGI (SF-539 CNS) of the same compound?
Its TGI is 3.15 µM.

What about the GI50 (OVCAR-4 ovarian) of the same compound?
Its GI50 is 1.79 µM.

What about the TGI (OVCAR-4 ovarian) of the same compound?
The TGI was 3.66 µM.

And the GI50 (BT-549 breast)?
The GI50 was over 10 µM.

And the TGI (BT-549 breast)?
Its TGI is over 10 µM.

And the GI50 (MALME-3M melanoma)?
Its GI50 is 1.48 µM.

What about the TGI (MALME-3M melanoma) of the same compound?
Its TGI is 2.81 µM.

What about the GI50 (SNB-19 CNS) of the same compound?
Its GI50 is 2.49 µM.

What about the TGI (SNB-19 CNS) of the same compound?
The TGI was 9.38 µM.

And the GI50 (NCI-H460 lung)?
Its GI50 is 1.68 µM.

And the TGI (NCI-H460 lung)?
Its TGI is 3.3 µM.

What about the GI50 (SR leukemia) of the same compound?
Its GI50 is 4.05 µM.

And the TGI (SR leukemia)?
The TGI was over 10 µM.

And the GI50 (UACC-62 melanoma)?
The GI50 was 1.42 µM.

What about the TGI (UACC-62 melanoma) of the same compound?
The TGI was 2.74 µM.

And the GI50 (NCI-H23 lung)?
Its GI50 is 2.5 µM.

What about the TGI (NCI-H23 lung) of the same compound?
The TGI was 9.11 µM.

What about the GI50 (OVCAR-5 ovarian) of the same compound?
Its GI50 is 2.08 µM.

And the TGI (OVCAR-5 ovarian)?
Its TGI is 5.67 µM.

What about the GI50 (HCT-15 colon) of the same compound?
The GI50 was 1.76 µM.

And the TGI (HCT-15 colon)?
The TGI was 3.45 µM.

What about the GI50 (NCI-H522 lung) of the same compound?
The GI50 was 1.68 µM.

And the TGI (NCI-H522 lung)?
The TGI was 3.24 µM.

What about the GI50 (HCT-116 colon) of the same compound?
Its GI50 is 1.66 µM.

What about the TGI (HCT-116 colon) of the same compound?
Its TGI is 3.16 µM.

What about the GI50 (MOLT-4 leukemia) of the same compound?
Its GI50 is 3.08 µM.

What about the TGI (MOLT-4 leukemia) of the same compound?
The TGI was over 10 µM.

What about the GI50 (RXF 393 renal) of the same compound?
Its GI50 is 1.56 µM.

What about the TGI (RXF 393 renal) of the same compound?
The TGI was 3.22 µM.

And the GI50 (OVCAR-3 ovarian)?
The GI50 was 1.74 µM.

What about the TGI (OVCAR-3 ovarian) of the same compound?
The TGI was 3.3 µM.

What about the GI50 (HOP-62 NSCLC) of the same compound?
The GI50 was 3.46 µM.

And the TGI (HOP-62 NSCLC)?
Its TGI is over 10 µM.

What about the GI50 (HL-60(TB) leukemia) of the same compound?
The GI50 was 3.58 µM.

What about the TGI (HL-60(TB) leukemia) of the same compound?
The TGI was over 10 µM.

And the GI50 (NCI-H226 lung)?
Its GI50 is 1.69 µM.

What about the TGI (NCI-H226 lung) of the same compound?
The TGI was 4.15 µM.

And the GI50 (HCC-2998 colon)?
Its GI50 is 1.68 µM.

What about the TGI (HCC-2998 colon) of the same compound?
Its TGI is 3.22 µM.

What about the GI50 (SK-MEL-5 melanoma) of the same compound?
The GI50 was 1.47 µM.

What about the TGI (SK-MEL-5 melanoma) of the same compound?
Its TGI is 3.12 µM.

And the GI50 (MDA-MB-468 breast)?
The GI50 was 1.54 µM.

What about the TGI (MDA-MB-468 breast) of the same compound?
Its TGI is 3.01 µM.

What about the GI50 (SN12C renal) of the same compound?
The GI50 was over 10 µM.

And the TGI (SN12C renal)?
The TGI was over 10 µM.

And the GI50 (KM12 colon)?
Its GI50 is 2.11 µM.

And the TGI (KM12 colon)?
The TGI was 4.91 µM.

And the GI50 (IGROV1 ovarian)?
The GI50 was 3.15 µM.

What about the TGI (IGROV1 ovarian) of the same compound?
The TGI was over 10 µM.

What about the GI50 (SNB-75 CNS) of the same compound?
The GI50 was 1.42 µM.

What about the TGI (SNB-75 CNS) of the same compound?
The TGI was 3.51 µM.

What about the GI50 (TK-10 renal) of the same compound?
Its GI50 is 3.12 µM.

What about the TGI (TK-10 renal) of the same compound?
The TGI was over 10 µM.

And the GI50 (M14 melanoma)?
The GI50 was 1.66 µM.

What about the TGI (M14 melanoma) of the same compound?
Its TGI is 3.11 µM.

What about the GI50 (OVCAR-8 ovarian) of the same compound?
Its GI50 is 2.25 µM.

And the TGI (OVCAR-8 ovarian)?
Its TGI is 5.17 µM.

And the GI50 (CAKI-1 renal)?
The GI50 was 1.82 µM.

And the TGI (CAKI-1 renal)?
The TGI was 4.4 µM.

What about the GI50 (U251 CNS) of the same compound?
Its GI50 is 1.87 µM.

What about the TGI (U251 CNS) of the same compound?
Its TGI is 3.93 µM.

And the GI50 (COLO 205 colon)?
Its GI50 is 1.9 µM.

What about the TGI (COLO 205 colon) of the same compound?
The TGI was 3.53 µM.

What about the GI50 (UACC-257 melanoma) of the same compound?
Its GI50 is 1.86 µM.

And the TGI (UACC-257 melanoma)?
The TGI was 3.74 µM.

And the GI50 (DU-145 prostate)?
Its GI50 is 5.41 µM.

And the TGI (DU-145 prostate)?
Its TGI is over 10 µM.

And the GI50 (786-0 renal)?
Its GI50 is 1.83 µM.

And the TGI (786-0 renal)?
Its TGI is 3.87 µM.

What about the GI50 (A498 renal) of the same compound?
The GI50 was over 10 µM.

And the TGI (A498 renal)?
The TGI was over 10 µM.

And the GI50 (A549 NSCLC)?
The GI50 was 2.82 µM.

And the TGI (A549 NSCLC)?
The TGI was over 10 µM.
